Like-named read-outs stand apart in the source and are kept apart here.
Columns and labels:
[1] = test system: Botryotinia fuckeliana (Botrytis cinerea); test: Botryotinia fuckeliana (Botrytis cinerea) / liquid culture (Gray mould); type: cell-based; details: 72 h, 200 ppm, liquid culture, 24° C., inhibition of growth determined photometrically 3-4 days after application, vs untreated control, read-out: disease control
Gaeumannomyces graminis = Gaeumannomyces graminis / liquid culture (Take-all of cereals); type: cell-based; details: 96 h, read-out: disease control
[2] = test system: Monographella nivalis (Microdochium nivale); test: Monographella nivalis (Microdochium nivale) / liquid culture (Foot rot cereals); type: cell-based; details: 96 h, 200 ppm, liquid culture, 24° C., inhibition of growth determined photometrically 4-5 days after application, vs untreated control, read-out: disease control
[3] = test system: Glomerella lagenarium (Colletotrichum lagenarium); test: Glomerella lagenarium (Colletotrichum lagenarium) / liquid culture (Anthracnose); type: cell-based; details: Colletotrichum orbiculare; 200 ppm; liquid culture, 24° C., inhibition of growth measured photometrically 3-4 days after application; vs untreated control; read-out: disease control
Fusarium culmorum = test: microbe, parasite or virus in culture; type: cell-based; details: 72 h, read-out: disease control
[4] = test system: Mycosphaerella graminicola (Septoria tritici); test: Mycosphaerella graminicola (Septoria tritici) / liquid culture (Septoria blotch); type: cell-based; details: Zymoseptoria tritici, 96 h, read-out: disease control
[5] = liquid culture, 24° C., inhibition of growth determined photometrically 4-5 days after application, vs untreated control

| SMILES | inhibition of growth at 200 ppm [1] | inhibition of growth at 200 ppm (Gaeumannomyces graminis; [5]) | inhibition of growth at 200 ppm [2] | inhibition of growth at 200 ppm [3] | inhibition of growth at 200 ppm (Fusarium culmorum) | inhibition of growth at 200 ppm [4, 5] | melting point | inhibition of growth at 200 ppm [4] | inhibition of growth at 200 ppm (Gaeumannomyces graminis) |
| --- | --- | --- | --- | --- | --- | --- | --- | --- | --- |
| CC1(C)N=C(c2cnn3cccc3c2)c2cccc(F)c2C1(C)C [E 1] | ≥ 80% | ≥ 80% | ≥ 80% | ≥ 80% |  |  |  |  |  |
| CC1(C)N=C(c2cnn3c(F)ccc3c2)c2cccc(F)c2C1(C)C [E 2] | ≥ 80% | ≥ 80% | ≥ 80% | ≥ 80% | ≥ 80% |  |  |  |  |
| CC1(C)Cc2c(F)cccc2C(c2cnn3cccc3c2)=N1 [E 3] | ≥ 80% | ≥ 80% | ≥ 80% | ≥ 80% | ≥ 80% | ≥ 80% |  |  |  |
| CC1(C)Cc2c(Br)cccc2C(c2cnn3cccc3c2)=N1 [E 5] | ≥ 80% |  | ≥ 80% | ≥ 80% | ≥ 80% | ≥ 80% |  |  |  |
| CC1(C)Cc2c(F)cccc2C(c2cnn3c(F)cc(Br)c3c2)=N1 [E 15] | ≥ 80% | ≥ 80% | ≥ 80% | ≥ 80% |  | ≥ 80% |  |  |  |
| CC1(C)Cc2c(F)cccc2C(c2cnn3c(Br)ccc3c2)=N1 [E 17] | ≥ 80% | ≥ 80% | ≥ 80% | ≥ 80% |  |  |  |  |  |
| Cc1cc(F)n2ncc(C3=NC(C)(C)Cc4c(F)cccc43)cc12 [E 18] | ≥ 80% | ≥ 80% | ≥ 80% | ≥ 80% |  | ≥ 80% |  |  |  |
| CC1(C)Cc2ccccc2C(c2cnn3c(F)ccc3c2)N1 (stereo not shown) [E 21] | ≥ 80% | ≥ 80% |  | ≥ 80% |  |  |  |  |  |
| CC1(C)N=C(c2cnn3c(F)cc(I)c3c2)c2cccc(F)c2C1(C)C [E 24] | ≥ 80% |  | ≥ 80% | ≥ 80% | ≥ 80% | ≥ 80% |  |  |  |
| C#Cc1cccc2c1CC(C)(C)N=C2c1cnn2c(F)ccc2c1 [E 27] | ≥ 80% | ≥ 80% | ≥ 80% | ≥ 80% | ≥ 80% | ≥ 80% |  |  |  |
| CC1(C)Cc2c(I)cccc2C(c2cnn3cccc3c2)=N1 [E 29] | ≥ 80% |  | ≥ 80% | ≥ 80% | ≥ 80% | ≥ 80% |  |  |  |
| CC1(C)Cc2c(F)cccc2C(c2cnn3c(C#N)ccc3c2)=N1 [E 30, 3-(5-fluoro-3,3-dimethyl-4H-isoquinolin-1-yl)pyrrolo[1,2-b]pyridazine-7-carbonitrile] | ≥ 80% | ≥ 80% | ≥ 80% | ≥ 80% | ≥ 80% | ≥ 80% | 118 to 136 °C |  |  |
| CC1(C)Cc2c(Oc3ccccn3)cccc2C(c2cnn3cccc3c2)=N1 [E 31] | ≥ 80% | ≥ 80% |  |  |  |  |  |  |  |
| CC1(C)N=C(c2cnn3c(I)cc(I)c3c2)c2cccc(F)c2C1(C)C [E 38] | ≥ 80% |  | ≥ 80% |  |  | ≥ 80% |  |  |  |
| CC1(C)N=C(c2cnn3c(Br)ccc3c2)c2cccc(F)c2C1(C)C [E 42] | ≥ 80% | ≥ 80% | ≥ 80% | ≥ 80% | ≥ 80% |  |  |  |  |
| C#CCOc1cccc2c1CC(C)(C)N=C2c1cnn2cccc2c1 [E 54] | ≥ 80% | ≥ 80% |  |  |  |  |  |  |  |
| CC1(C)Cc2c(Oc3ccccc3)cccc2C(c2cnn3cccc3c2)=N1 [E 60] | ≥ 80% |  | ≥ 80% | ≥ 80% | ≥ 80% | ≥ 80% |  |  |  |
| CC1(C)N=C(c2cnn3c(C#N)cc(Br)c3c2)c2cccc(F)c2C1(F)F [E 64, 5-bromo-3-(4,4,5-trifluoro-3,3-dimethyl-1-isoquinolyl)pyrrolo[1,2-b]pyridazine-7-carbonitrile] |  |  |  |  |  |  | 190 to 192 °C |  |  |
| CC1(C)N=C(c2cnn3c(C#N)ccc3c2)c2cccc(F)c2C1(F)F [E 66, 3-(4,4,5-trifluoro-3,3-dimethyl-1-isoquinolyl)pyrrolo[1,2-b]pyridazine-7-carbonitrile] | ≥ 80% |  | ≥ 80% | ≥ 80% | ≥ 80% |  | 214 to 216 °C |  |  |
| CC1(C)N=C(c2cnn3c(F)c(F)cc3c2)c2cccc(F)c2C1(C)C [E 75] | ≥ 80% | ≥ 80% |  | ≥ 80% | ≥ 80% |  |  |  |  |
| CC1(C)N=C(c2cnn3c(Cl)ccc3c2)c2cccc(F)c2C1(C)C [E 76] |  |  |  |  | ≥ 80% |  |  | ≥ 80% | ≥ 80% |
| Cc1nn2cccc2cc1C1=NC(C)(C)C(C)(C)c2c1ccc(F)c2F [E 80] | ≥ 80% |  | ≥ 80% | ≥ 80% | ≥ 80% |  |  |  |  |
| Cc1nn2c(Br)ccc2cc1C1=NC(C)(C)C(C)(C)c2c(F)cccc21 [E 84] | ≥ 80% | ≥ 80% | ≥ 80% | ≥ 80% | ≥ 80% |  |  |  |  |
| Cc1cnc2cc(C3=NC(C)(C)C(F)(F)c4c(F)cccc43)cnn12 [E 90] | ≥ 80% |  | ≥ 80% | ≥ 80% | ≥ 80% |  |  |  |  |

Source: US9586969B2, “Microbiocidal heterobicyclic derivatives” (Syngenta Participations AG, priority 2014, dated 2017)
